Data set [1] deals with SH-SY5Y. Kind of data set: Cytoprotective activity against H2O2-induced apoptosis in human SH-SY5Y cells assessed as dead cells at 1 uM preincubated for 24 hrs followed by H2O2 addition measured after 24 hrs by annexin V-FITC/propidium iodide staining-based flow cytometric analysis (reference value: 25.81 +/- 3.57%). It is filed as functional. Background: In flow cytometry, cells or beads pass a laser one at a time.

Data set [2] concerns SH-SY5Y. Description: Cytoprotective activity against H2O2-induced oxidative stress in human SH-SY5Y cells at 1 uM preincubated for 24 hrs followed by H2O2 addition measured after 24 hrs by DCFHDA dye-based flow cytometric analysis. It counts as functional, cell-based.
Data set [3] concerns SH-SY5Y. Kind of data set: Cytoprotective activity against H2O2-induced apoptosis in human SH-SY5Y cells assessed as early apoptotic cells at 1 uM preincubated for 24 hrs followed by H2O2 addition measured after 24 hrs by annexin V-FITC/propidium iodide staining-based flow cytometric analysis relative to control. It is filed as functional.
Data set [4] has as its system SH-SY5Y. Kind of data set: Cytoprotective activity against H2O2-induced toxicity in human SH-SY5Y cells assessed as increase in cell viability at 1 uM preincubated for 24 hrs followed by H2O2 addition measured after 24 hrs by MTT assay relative to control. It is filed as functional.
The subject of data set [5] is SH-SY5Y. Description: Cytoprotective activity against H2O2-induced apoptosis in human SH-SY5Y cells assessed as viable cells at 1 uM preincubated for 24 hrs followed by H2O2 addition measured after 24 hrs by annexin V-FITC/propidium iodide staining-based flow cytometric analysis (reference value: 71.08 +/- 2.34%). It is filed as functional. The conditions noted are these: read-out: Activity.

The test system of data set [6] is SH-SY5Y. Kind of data set: Toxicity in H2O2 stressed human SH-SY5Y cells assessed as effect on total glutathione level at 1 uM preincubated for 24 hrs followed by H2O2 addition measured after 24 hrs by spectrophotometric analysis. It is filed as cell-based.
Data set [7] concerns SH-SY5Y. Kind of data set: Cytoprotective activity against H2O2-induced toxicity in human SH-SY5Y cells assessed as increase in cell viability at 1 uM preincubated for 24 hrs followed by H2O2 addition measured after 24 hrs by MTT assay relative to PBN. It counts as functional. (In general: Formazan colour is commonly taken as a measure of viable cells.)
The test system of data set [8] is SH-SY5Y. Kind of data set: Cytoprotective activity against H2O2-induced apoptosis in human SH-SY5Y cells assessed as late apoptotic cells at 1 uM preincubated for 24 hrs followed by H2O2 addition measured after 24 hrs by annexin V-FITC/propidium iodide staining-based flow cytometric analysis (reference value: 2.78 +/- 0.53%). It is filed as functional.
For data set [9], the system named is SH-SY5Y. Description: Cytoprotective activity against H2O2 stressed human SH-SY5Y cells assessed as increase in glutathione level at 1 uM preincubated for 24 hrs followed by H2O2 addition measured after 24 hrs by spectrophotometric analysis. It counts as functional.
Data set [10] concerns SH-SY5Y. Kind of data set: Cytoprotective activity against H2O2-induced apoptosis in human SH-SY5Y cells assessed as late apoptotic cells at 100 nM preincubated for 24 hrs followed by H2O2 addition measured after 24 hrs by annexin V-FITC/propidium iodide staining-based flow cytometric analysis (reference value: 2.78 +/- 0.53%). It counts as functional.
Data set [11] concerns SH-SY5Y. Kind of data set: Cytoprotective activity against H2O2-induced apoptosis in human SH-SY5Y cells assessed as early apoptotic cells at 100 nM preincubated for 24 hrs followed by H2O2 addition measured after 24 hrs by annexin V-FITC/propidium iodide staining-based flow cytometric analysis relative to control. It is filed as functional.
The test system of data set [12] is SH-SY5Y. Kind of data set: Cytoprotective activity against H2O2-induced apoptosis in human SH-SY5Y cells assessed as dead cells at 100 nM preincubated for 24 hrs followed by H2O2 addition measured after 24 hrs by annexin V-FITC/propidium iodide staining-based flow cytometric analysis (reference value: 25.81 +/- 3.57%). It is filed as functional.

The source of these data is ChEMBL document CHEMBL3745698, “α-Aryl-N-aryl nitrones: Synthesis and screening of a new scaffold for cellular protection against an oxidative toxic stimulus” (Bioorg Med Chem, 2016).

Structures are written as SMILES. The source made the active and inactive calls. The rule behind the calls is not given here.

`Cc1ccc(/[N+]([O-])=C/c2ccccc2)cc1C`: the Activity is 9.13% in the data set with SH-SY5Y [1]; 0% in the data set with SH-SY5Y [3]; 95% with SH-SY5Y [4]; “Non-toxic” in the data set with SH-SY5Y [6]; 42% with SH-SY5Y [7]; 1.21% with SH-SY5Y [8]. For the same compound, the Activity in the data set on SH-SY5Y [9] came out at 65%. In addition, in the data set on SH-SY5Y [2], the result was Active. The viability at 1 µM in the data set on SH-SY5Y [5] worked out at 85%.

As to `[O-]/[N+](=C\c1ccccc1)c1ccc(Cl)cc1`, the Activity in the data set on SH-SY5Y [4] came out at 71%; in the data set on SH-SY5Y [7], 42%.

Take `Cc1ccc(/[N+]([O-])=C/c2ccncc2)cc1C`: the Activity with SH-SY5Y [4] is given as 71%; in the data set with SH-SY5Y [7], 42%.

As to `[O-]/[N+](=C\c1ccncc1)c1ccc(Cl)cc1`, the Activity is 71% with SH-SY5Y [4] and 42% in the data set with SH-SY5Y [7].

Consider `[O-]/[N+](=C\c1ccncc1)c1ccccc1`, for which the results for the Activity with SH-SY5Y [4] and in the data set with SH-SY5Y [7] were 71% and 42%, respectively.

With `CC(C)(C)/[N+]([O-])=C\c1ccccc1`, the Activity came out at 9.42% in the data set with SH-SY5Y [1], 0.03% in the data set with SH-SY5Y [3], 2.4% in the data set with SH-SY5Y [8] and 65% with SH-SY5Y [9]. Also, the result in the data set with SH-SY5Y [2] was Active.

Turning to `[O-]/[N+](=C\c1ccccc1)c1ccccc1`, the Activity is listed as 3.78% with SH-SY5Y [1]; 0% with SH-SY5Y [3]; 71% in the data set on SH-SY5Y [4]; “Non-toxic” in the data set with SH-SY5Y [6]; 42% in the data set with SH-SY5Y [7]; 1.56% in the data set on SH-SY5Y [8]. The Activity with SH-SY5Y [9] came out at 65%. Besides, the outcome in the data set with SH-SY5Y [2] was Active. For the same compound, the viability at 1 µM in the data set on SH-SY5Y [5] stood at 85%.

`[O-]/[N+](=C\c1ccc2c(c1)OCO2)c1ccc(Cl)cc1`: the values for the Activity with SH-SY5Y [4] and in the data set on SH-SY5Y [7] were 71% and 42%, respectively.

For `Cc1ccc(/[N+]([O-])=C/c2ccc3c(c2)OCO3)cc1C`, the Activity in the data set with SH-SY5Y [4] was determined as 71%; with SH-SY5Y [7] it was 42%.

As to `[O-]/[N+](=C\c1ccc2c(c1)OCO2)c1ccccc1`, the Activity in the data set on SH-SY5Y [4] worked out at 71%; with SH-SY5Y [7] it was 42%.

On to `CN[C@@H]1C[C@H]2O[C@@](C)([C@@H]1OC)n1c3ccccc3c3c4c(c5c6ccccc6n2c5c31)C(=O)NC4` [STAUROSPORINE], for which the Activity was found to be 14.49% with SH-SY5Y [10], 2.63% in the data set with SH-SY5Y [11] and 6.19% in the data set on SH-SY5Y [12].
